According to ChEMBL document CHEMBL1148266, “Synthesis and mitochondrial complex I inhibition of dihydroxy-cohibin A, non-THF annonaceous acetogenin analogue” (Bioorg Med Chem Lett, 2004):

Species: Bos taurus
Test: Inhibition concentration was evaluated in NADH oxidase assay using bovine heart submitochondrial particles
Assay type: functional

IC50 [nM] | SMILES
20 | CCCCCCCCCCCC[C@H](O)[C@@H](O)CC[C@@H](O)[C@H](O)CCCCCCCCCCCCC1=C[C@H](C)OC1=O [DIHYDROXY-COHIBIN A]
4100 | CCCCCCCCCCCC[C@H](OCOC)[C@H](CC[C@@H](OCOC)[C@H](O)CCCCCCCCCCCCC1=C[C@H](C)OC1=O)OCOC
